From PMC5218480 (PLoS ONE, 2017)

Test system: MV-4-11 cells
Assay: Gene expression microarray analysis (Affymetrix PrimeView) and GSEA
Type: cell-based, human
Set-up: RFU PODN (11730768_x_at) / Fold change /veh PODN (11730768_x_at) / RFU LINC00158 (11744669_a_at) / Fold change /veh LINC00158 (11744669_a_at) / RFU DUSP10 (11751237_a_at) / Fold change /veh DUSP10 (11751237_a_at) / RFU ID3 (11757404_x_at) / Fold change /veh ID3 (11757404_x_at) / RFU PLEKHG5 (11737974_s_at) / Fold change /veh PLEKHG5 (11737974_s_at) / RFU LRRC4B (11730491_at) / Fold change /veh LRRC4B (11730491_at) / RFU GIMAP4 (11747438_a_at) / Fold change /veh GIMAP4 (11747438_a_at) / RFU KRT8 (11758183_x_at) / Fold change /veh KRT8 (11758183_x_at) / RFU CNN1 (11734310_a_at) / Fold change /veh CNN1 (11734310_a_at) / RFU VPS37D (11726825_at) / Fold change /veh VPS37D (11726825_at) / RFU C10orf10 (11716522_x_at) / Fold change /veh C10orf10 (11716522_x_at) / RFU KIR2DL2 /// KIR2DL4 /// KIR2DL5A /// KIR2DL5B /// KIR2DS1 /// KIR2DS2 /// KIR2DS3 /// KIR2DS4 /// KIR3DL3 /// KIR3DL3 /// KIR3DS1 (11738374_at) / Fold change /veh KIR2DL2 /// KIR2DL4 /// KIR2DL5A /// KIR2DL5B /// KIR2DS1 /// KIR2DS2 /// KIR2DS3 /// KIR2DS4 /// KIR3DL3 /// KIR3DL3 /// KIR3DS1 (11738374_at) / RFU C1QL1 (11718748_at) / Fold change /veh C1QL1 (11718748_at) / RFU TMPRSS4 (11747572_a_at) / Fold change /veh TMPRSS4 (11747572_a_at) / RFU HAMP (11756126_x_at) / Fold change /veh HAMP (11756126_x_at) / RFU RNFT2 (11725882_a_at) / Fold change /veh RNFT2 (11725882_a_at) / RFU NR4A2 (11747474_a_at) / Fold change /veh NR4A2 (11747474_a_at) / RFU ABCC12 (11746883_a_at) / Fold change /veh ABCC12 (11746883_a_at) / RFU TMEM136 (11760407_x_at) / Fold change /veh TMEM136 (11760407_x_at) / RFU CLDN22 /// WWC2 (11732394_at) / Fold change /veh CLDN22 /// WWC2 (11732394_at) / RFU HLA-DPB1 (11760878_x_at) / Fold change /veh HLA-DPB1 (11760878_x_at) / RFU SPINT1 (11716480_a_at) / Fold change /veh SPINT1 (11716480_a_at) / RFU GAP43 (11754022_s_at) / Fold change /veh GAP43 (11754022_s_at) / RFU A4GNT (11735810_at) / Fold change /veh A4GNT (11735810_at) / RFU PRB3 (11715151_x_at) / Fold change /veh PRB3 (11715151_x_at) / RFU TUBB4B (11761932_at) / Fold change /veh TUBB4B (11761932_at) / RFU CAPN14 (11732068_a_at) / Fold change /veh CAPN14 (11732068_a_at) / RFU TMCC2 (11721928_a_at) / Fold change /veh TMCC2 (11721928_a_at) / RFU IRGQ (11745062_a_at) / Fold change /veh IRGQ (11745062_a_at) / RFU FAM174B (11720279_a_at) / Fold change /veh FAM174B (11720279_a_at) / RFU TMPRSS4 (11748680_a_at) / Fold change /veh TMPRSS4 (11748680_a_at) / RFU FAM212B (11763350_a_at) / Fold change /veh FAM212B (11763350_a_at) / RFU PLEKHG5 (11743358_a_at) / Fold change /veh PLEKHG5 (11743358_a_at) / RFU ZSCAN30 (11745921_a_at) / Fold change /veh ZSCAN30 (11745921_a_at) / RFU CMKLR1 (11741424_a_at) / Fold change /veh CMKLR1 (11741424_a_at) / RFU LOC101060620 /// MAPK8IP1 (11723275_at) / Fold change /veh LOC101060620 /// MAPK8IP1 (11723275_at) / RFU SPTSSB (11747773_x_at) / Fold change /veh SPTSSB (11747773_x_at) / RFU PRSS12 (11739890_at) / Fold change /veh PRSS12 (11739890_at) / RFU BIN1 (11741810_x_at) / Fold change /veh BIN1 (11741810_x_at) / RFU WNT11 (11732464_a_at) / Fold change /veh WNT11 (11732464_a_at) / RFU C10orf10 (11716521_a_at) / Fold change /veh C10orf10 (11716521_a_at) / RFU C5orf56 (11738089_at) / Fold change /veh C5orf56 (11738089_at) / RFU CYB561 (11721691_x_at) / Fold change /veh CYB561 (11721691_x_at) / RFU ANKRD19P (11752326_a_at) / Fold change /veh ANKRD19P (11752326_a_at) / RFU OR2T12 /// OR2T33 /// OR2T8 (11738714_s_at) / Fold change /veh OR2T12 /// OR2T33 /// OR2T8 (11738714_s_at) / RFU VCAN (11748164_a_at) / Fold change /veh VCAN (11748164_a_at) / RFU JSRP1 (11732532_at) / Fold change /veh JSRP1 (11732532_at) / RFU KRTAP10-11 (11738290_x_at) / Fold change /veh KRTAP10-11 (11738290_x_at) / RFU MYO3A (11730013_a_at) / Fold change /veh MYO3A (11730013_a_at) / RFU EBF3 (11725865_a_at) / Fold change /veh EBF3 (11725865_a_at) / RFU CAMK2N1 (11719241_x_at) / Fold change /veh CAMK2N1 (11719241_x_at) / RFU C5orf56 (11738088_a_at) / Fold change /veh C5orf56 (11738088_a_at) / RFU OLFML3 (11715873_a_at) / Fold change /veh OLFML3 (11715873_a_at) / RFU LOC100653217 /// NTM (11731650_a_at) / Fold change /veh LOC100653217 /// NTM (11731650_a_at) / RFU MAPK11 (11762145_a_at) / Fold change /veh MAPK11 (11762145_a_at) / RFU FIZ1 (11724087_x_at) / Fold change /veh FIZ1 (11724087_x_at) / RFU OASL (11726364_x_at) / Fold change /veh OASL (11726364_x_at) / RFU SOX15 (11748057_x_at) / Fold change /veh SOX15 (11748057_x_at) / RFU CD79A (11719716_a_at) / Fold change /veh CD79A (11719716_a_at) / RFU HIST1H1D (11736915_at) / Fold change /veh HIST1H1D (11736915_at) / RFU CASKIN2 (11723855_a_at) / Fold change /veh CASKIN2 (11723855_a_at) / RFU LOC730098 (11760151_x_at) / Fold change /veh LOC730098 (11760151_x_at) / RFU OR4N2 (11742367_at) / Fold change /veh OR4N2 (11742367_at) / RFU PRRT2 (11749266_a_at) / Fold change /veh PRRT2 (11749266_a_at) / RFU SNX32 (11753110_a_at) / Fold change /veh SNX32 (11753110_a_at) / RFU CDHR5 (11726645_a_at) / Fold change /veh CDHR5 (11726645_a_at) / RFU RCAN1 (11760418_a_at) / Fold change /veh RCAN1 (11760418_a_at) / RFU FAM167A (11723789_a_at) / Fold change /veh FAM167A (11723789_a_at) / RFU FAM26E (11764081_at) / Fold change /veh FAM26E (11764081_at) / RFU ISYNA1 (11749810_s_at) / Fold change /veh ISYNA1 (11749810_s_at) / RFU ACY1 (11761880_at) / Fold change /veh ACY1 (11761880_at) / RFU 11764098_at / Fold change /veh 11764098_at / RFU SAMD14 (11745864_x_at) / Fold change /veh SAMD14 (11745864_x_at) / RFU NPB (11741838_a_at) / Fold change /veh NPB (11741838_a_at) / RFU TMPRSS6 (11731388_a_at) / Fold change /veh TMPRSS6 (11731388_a_at) / RFU KRTAP10-2 (11738614_at) / Fold change /veh KRTAP10-2 (11738614_at) / RFU ARHGAP8 /// PRR5-ARHGAP8 (11727945_x_at) / Fold change /veh ARHGAP8 /// PRR5-ARHGAP8 (11727945_x_at) / RFU KRTAP5-7 /// NADSYN1 (11734609_at) / Fold change /veh KRTAP5-7 /// NADSYN1 (11734609_at) / RFU RASL12 (11751679_a_at) / Fold change /veh RASL12 (11751679_a_at) / RFU CDKN2B (11736163_a_at) / Fold change /veh CDKN2B (11736163_a_at) / RFU PRF1 (11729649_at) / Fold change /veh PRF1 (11729649_at) / RFU, ZNF638 /// ZNF638-IT1 / Fold change vs veh, ZNF638 /// ZNF638-IT1 / RFU, PANK3 / Fold change vs veh, PANK3 / RFU, SH3YL1 / Fold change vs veh, SH3YL1 / RFU, ZEB2 / Fold change vs veh, ZEB2 / RFU, NRIP1 / Fold change vs veh, NRIP1 / RFU, PTTG1IP / Fold change vs veh, PTTG1IP / RFU, CAPN2 / Fold change vs veh, CAPN2 / RFU, MED14 / Fold change vs veh, MED14 / RFU, SNORA58 / Fold change vs veh, SNORA58 / RFU, C1orf63 / Fold change vs veh, C1orf63 / RFU, LRRFIP1 / Fold change vs veh, LRRFIP1 / RFU, NDUFAF7 / Fold change vs veh, NDUFAF7 / RFU, SLC12A2 / Fold change vs veh, SLC12A2 / RFU, IBTK / Fold change vs veh, IBTK / RFU, ESF1 / Fold change vs veh, ESF1 / Fold change vs veh, TMEM50B / RFU, TAOK1 / Fold change vs veh, TAOK1 / RFU, ACBD3 / Fold change vs veh, ACBD3 / RFU, TMA16 / Fold change vs veh, TMA16 / RFU, RWDD3 / Fold change vs veh, RWDD3 / RFU, BCAT1 / Fold change vs veh, BCAT1 / RFU, EDEM3 / Fold change vs veh, EDEM3 / RFU, TMEM33 / Fold change vs veh, TMEM33 / RFU, WDR75 / Fold change vs veh, WDR75 / RFU, AHCTF1 / Fold change vs veh, AHCTF1 / RFU, TFRC / Fold change vs veh, TFRC / RFU, ZDHHC17 / Fold change vs veh, ZDHHC17 / RFU, NOM1 / Fold change vs veh, NOM1 / RFU, ARL8B / Fold change vs veh, ARL8B / RFU, ZBTB11 / Fold change vs veh, ZBTB11 / RFU, TAMM41 / Fold change vs veh, TAMM41 / RFU, KIAA1704 /// LOC100996395 / Fold change vs veh, KIAA1704 /// LOC100996395 / RFU, ING1 / Fold change vs veh, ING1 / RFU, TRMT61B / Fold change vs veh, TRMT61B / RFU, FUBP3 / Fold change vs veh, FUBP3 / RFU, TP53 / Fold change vs veh, TP53 / RFU, TNKS2 / Fold change vs veh, TNKS2 / RFU, ZFP14 / Fold change vs veh, ZFP14 / RFU, ACTR2 / Fold change vs veh, ACTR2 / RFU, PPP3R1 / Fold change vs veh, PPP3R1 / RFU, PIK3R1 / Fold change vs veh, PIK3R1 / RFU, HNRNPA1 / Fold change vs veh, HNRNPA1 / RFU, RNF170 / Fold change vs veh, RNF170 / RFU, ZNF28 / Fold change vs veh, ZNF28 / RFU, RNGTT / Fold change vs veh, RNGTT / RFU, OGT / Fold change vs veh, OGT / RFU, BRD1 / Fold change vs veh, BRD1 / RFU, MARS / Fold change vs veh, MARS / RFU, ZNF655 / Fold change vs veh, ZNF655 / RFU, FAHD1 / Fold change vs veh, FAHD1 / RFU, BDP1 / Fold change vs veh, BDP1 / RFU, LRRCC1 / Fold change vs veh, LRRCC1 / RFU, ARID1A / Fold change vs veh, ARID1A / RFU, ZNF146 / Fold change vs veh, ZNF146 / RFU, ZNF330 / Fold change vs veh, ZNF330 / RFU, GPN3 / Fold change vs veh, GPN3 / RFU, C9orf123 / Fold change vs veh, C9orf123 / RFU, N4BP2L2 / Fold change vs veh, N4BP2L2 / RFU, ARFIP1 / Fold change vs veh, ARFIP1 / RFU, FAM179B / Fold change vs veh, FAM179B / RFU, BCL10 / Fold change vs veh, BCL10 / RFU, UHRF1BP1L / Fold change vs veh, UHRF1BP1L / RFU, BET1 / Fold change vs veh, BET1 / RFU, CNOT2 / Fold change vs veh, CNOT2 / RFU, ZNF268 / Fold change vs veh, ZNF268 / Fold change vs veh, ZNF507 / RFU, DGCR2 / Fold change vs veh, DGCR2 / RFU, WDSUB1 / Fold change vs veh, WDSUB1 / Fold change vs veh, HSP90B1 /// MIR3652 / RFU, ADSS / Fold change vs veh, ADSS / RFU, GK / Fold change vs veh, GK / RFU, ZNF148 / Fold change vs veh, ZNF148 / RFU, TAF9 / Fold change vs veh, TAF9 / RFU, SLC1A5 / Fold change vs veh, SLC1A5 / RFU, SLMO2 / Fold change vs veh, SLMO2 / RFU, ABCC4 / Fold change vs veh, ABCC4 / RFU, LOC101060439 /// RAP1B / Fold change vs veh, LOC101060439 /// RAP1B / RFU, RFX7 / Fold change vs veh, RFX7 / RFU, GTPBP10 / Fold change vs veh, GTPBP10 / RFU, CNEP1R1 / Fold change vs veh, CNEP1R1 / RFU, BIVM-ERCC5 /// ERCC5 / Fold change vs veh, BIVM-ERCC5 /// ERCC5 / RFU, ILF3 / Fold change vs veh, ILF3 / RFU 11762660_at / Fold change /veh 11762660_at / RFU VCAN (11757783_s_at) / Fold change /veh VCAN (11757783_s_at) / RFU DDX43 (11728927_at) / Fold change /veh DDX43 (11728927_at) / RFU KRT8 (11758188_x_at) / Fold change /veh KRT8 (11758188_x_at) / RFU NKD1 (11759106_at) / Fold change /veh NKD1 (11759106_at) / RFU SRD5A1 (11742802_a_at) / Fold change /veh SRD5A1 (11742802_a_at) / RFU TPSAB1 /// TPSB2 (11721975_s_at) / Fold change /veh TPSAB1 /// TPSB2 (11721975_s_at) / RFU GSTM3 (11746129_a_at) / Fold change /veh GSTM3 (11746129_a_at) / RFU IL23R (11737362_x_at) / Fold change /veh IL23R (11737362_x_at) / RFU TMEM51 (11727254_a_at) / Fold change /veh TMEM51 (11727254_a_at) / RFU PIWIL2 (11732686_x_at) / Fold change /veh PIWIL2 (11732686_x_at) / RFU ORM1 (11744905_x_at) / Fold change /veh ORM1 (11744905_x_at) / RFU CCDC152 (11743942_at) / Fold change /veh CCDC152 (11743942_at) / RFU ECM1 (11717891_a_at) / Fold change /veh ECM1 (11717891_a_at) / RFU IL23R (11748794_a_at) / Fold change /veh IL23R (11748794_a_at) / RFU TNFAIP8L3 (11732012_x_at) / Fold change /veh TNFAIP8L3 (11732012_x_at) / RFU MBOAT4 (11741988_at) / Fold change /veh MBOAT4 (11741988_at) / RFU 11764193_at / Fold change /veh 11764193_at / RFU TMEM53 (11763286_at) / Fold change /veh TMEM53 (11763286_at) / RFU MAGEB2 (11727129_at) / Fold change /veh MAGEB2 (11727129_at) / RFU TMEM200A (11744735_a_at) / Fold change /veh TMEM200A (11744735_a_at) / RFU CCDC152 (11751479_a_at) / Fold change /veh CCDC152 (11751479_a_at) / RFU FAM211A (11726209_a_at) / Fold change /veh FAM211A (11726209_a_at) / RFU RGS16 (11746705_a_at) / Fold change /veh RGS16 (11746705_a_at) / RFU VCAN (11755009_s_at) / Fold change /veh VCAN (11755009_s_at) / RFU RHOB (11743442_s_at) / Fold change /veh RHOB (11743442_s_at) / RFU RGS16 (11720943_a_at) / Fold change /veh RGS16 (11720943_a_at) / RFU RGS16 (11720944_at) / Fold change /veh RGS16 (11720944_at) / RFU, VPS4B / Fold change vs veh, VPS4B / RFU, CREB1 / Fold change vs veh, CREB1 / RFU, DNAJC13 / Fold change vs veh, DNAJC13 / RFU, GNAQ / Fold change vs veh, GNAQ / RFU, CDK5R1 / Fold change vs veh, CDK5R1 / RFU, ZRANB3 / Fold change vs veh, ZRANB3 / RFU, CUL4A / Fold change vs veh, CUL4A / RFU, CCNY / Fold change vs veh, CCNY / RFU, UFL1 / Fold change vs veh, UFL1 / RFU, COG3 / Fold change vs veh, COG3 / RFU, DIAPH2 / Fold change vs veh, DIAPH2 / RFU, SKA2 / Fold change vs veh, SKA2 / RFU, AFF3 / Fold change vs veh, AFF3 / RFU, LMF1 / Fold change vs veh, LMF1 / RFU, IPO11 / Fold change vs veh, IPO11 / RFU, DFFB / Fold change vs veh, DFFB / RFU, FOXP1 / Fold change vs veh, FOXP1 / RFU, CARD8 / Fold change vs veh, CARD8 / RFU, STRN3 / Fold change vs veh, STRN3 / RFU, ADK / Fold change vs veh, ADK / RFU, RASSF2 / Fold change vs veh, RASSF2 / RFU, WIPF1 / Fold change vs veh, WIPF1 / RFU, LARP1B / Fold change vs veh, LARP1B / RFU, RASA1 / Fold change vs veh, RASA1 / RFU, RB1 / Fold change vs veh, RB1 / RFU, PPFIA1 / Fold change vs veh, PPFIA1 / RFU, MAT2A / Fold change vs veh, MAT2A / RFU, CCT5 / Fold change vs veh, CCT5 / RFU, WDR92 / Fold change vs veh, WDR92 / RFU, CUX1 / Fold change vs veh, CUX1 / RFU, TTC7A / Fold change vs veh, TTC7A / RFU, TMEM135 / Fold change vs veh, TMEM135 / RFU, DEPTOR / Fold change vs veh, DEPTOR / RFU, CPM / Fold change vs veh, CPM / RFU, DNAJB6 / Fold change vs veh, DNAJB6 / RFU, CACNA2D3 / Fold change vs veh, CACNA2D3 / RFU, DTX4 / Fold change vs veh, DTX4 / RFU, TFCP2 / Fold change vs veh, TFCP2 / RFU, GMCL1 /// GMCL1P1 / Fold change vs veh, GMCL1 /// GMCL1P1 / RFU, AEBP2 / Fold change vs veh, AEBP2 / RFU, SNHG1 /// SNORD22 /// SNORD25 /// SNORD26 /// SNORD27 /// SNORD28 /// SNORD29 /// SNORD31 / Fold change vs veh, SNHG1 /// SNORD22 /// SNORD25 /// SNORD26 /// SNORD27 /// SNORD28 /// SNORD29 /// SNORD31 / Fold change (Aza/veh), C12orf56 (ProbeSet 11735607_a_at) / Fold change (ACY-1035/veh), C12orf56 (ProbeSet 11735607_a_at) / Fold change (Aza/veh), FGFR1OP (ProbeSet 11751329_s_at) / Fold change (ACY-1035/veh), FGFR1OP (ProbeSet 11751329_s_at) / Fold change (Aza/veh), VPS36 (ProbeSet 11739960_a_at) / Fold change (ACY-1035/veh), VPS36 (ProbeSet 11739960_a_at) / RFU SYPL1 (11715823_x_at) / Fold change /veh SYPL1 (11715823_x_at) / RFU IGFBP7 (11715501_s_at) / Fold change /veh IGFBP7 (11715501_s_at) / RFU REEP3 (11722064_at) / Fold change /veh REEP3 (11722064_at) / RFU IGLL1 (11728026_x_at) / Fold change /veh IGLL1 (11728026_x_at): dose or concentration left out as unconfirmed
Conditions: ProbeSet 11718977_a_at; LIST B

Nc1ccc(-c2cccs2)cc1NC(=O)c1ccc2c(c1)cc(C1CC1)n2CCN1CCOCC1 [ACY-1035]
Fold change vs veh, CAPN2: 0.88
